Key:
[1] = test system: Botryotinia fuckeliana (Botrytis cinerea); assay: Botryotinia fuckeliana (Botrytis cinerea) / liquid culture (gray mould); assay type: cell-based; conditions: growth inhibition photometrically 3-4 days after application, read-out: control of Botryotinia fuckeliana
Summary of the method: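 Conidia suspended in Vogels broth and added to compound dispensed from DMSO. Incubated at 24°C, with growth inhibition measured photometrically 3–4 days later.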

[2] = test system: Glomerella lagenarium (Colletotrichum lagenarium); assay: Glomerella lagenarium (Colletotrichum lagenarium) / liquid culture (anthracnose); assay type: cell-based; conditions: Colletotrichum orbiculare, growth inhibition photometrically 3-4 days after application, read-out: control of Glomerella lagenarium
Summary of the method: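 Cryo-stored conidia in potato dextrose broth were added to test compound in DMSO. Plates were incubated at 24° C, and growth inhibition was read photometrically 3-4 days after application.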

Fusarium culmorum = assay: microbe, parasite or virus in culture; assay type: cell-based; conditions: read-out: control of Fusarium culmorum
[3] = test system: Monographella nivalis (Microdochium nivale); assay: Monographella nivalis (Microdochium nivale) / liquid culture (foot rot cereals); assay type: cell-based; conditions: growth inhibition photometrically 4-5 days after application, read-out: control of Monographella nivalis
Summary of the method: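 Fungal conidia mixed directly into potato dextrose broth and added to test compound delivered in DMSO. Incubated at 24° C; growth inhibition read photometrically 4-5 days after application.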

[4] = test system: Mycosphaerella arachidis (Cercospora arachidicola); assay: Mycosphaerella arachidis (Cercospora arachidicola) / liquid culture (early leaf spot); assay type: cell-based; conditions: growth inhibition photometrically 4-5 days after application, read-out: control of Mycosphaerella arachidis
Protocol: Example B10: Mycosphaerella arachidis (Cercospora arachidicola)/Liquid Culture (Early Leaf Spot) Conidia of the fungus from cryogenic storage are directly mixed into nutrient broth (PDB potato dextrose broth). After placing a (DMSO) solution of test compound into a microtiter plate (96-well format), the nutrient broth containing the fungal spores is added. The test plates are incubated at 24° C. and the inhibition of growth is determined photometrically 4-5 days after application.

Sclerotinia sclerotiorum = Sclerotinia sclerotiorum / liquid culture (cottony rot); assay type: cell-based; conditions: growth inhibition photometrically 3-4 days after application, read-out: control of Sclerotinia sclerotiorum
Protocol: Example B15: Sclerotinia sclerotiorum/Liquid Culture (Cottony Rot) Mycelia fragments of a newly grown liquid culture of the fungus are directly mixed into nutrient broth (PDB potato dextrose broth). After placing a (DMSO) solution of test compound into a microtiter plate (96-well format) the nutrient broth containing the fungal material is added. The test plates are incubated at 24° C. and the inhibition of growth is determined photometrically 3-4 days after application.

[5] = test system: Mycosphaerella graminicola (Septoria tritici); assay: Mycosphaerella graminicola (Septoria tritici) / liquid culture (Septoria blotch); assay type: cell-based; conditions: Zymoseptoria tritici, growth inhibition photometrically 4-5 days after application, read-out: control of Mycosphaerella graminicola
Summary of the method: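 Conidia suspended in potato dextrose broth and added to test compound supplied in DMSO in 96-well plates. Incubated at 24 °C, and growth inhibition read photometrically 4-5 days after application.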

Alternaria solani = Alternaria solani / tomato / leaf disc (early blight); assay type: in vivo; conditions: foliar, tomato leaf disks, sprayed 2 days before inoculation, compared to untreated control
Protocol: Example B1: Alternaria solani/Tomato/Leaf Disc (Early Blight) Tomato leaf disks cv. Baby are placed on agar in multiwell plates (24-well format) and sprayed with the formulated test compound diluted in water. The leaf disks are inoculated with a spore suspension of the fungus 2 days after application. The inoculated leaf disks are incubated at 23° C./21° C.

[6] = test system: Blumeria graminis f. sp. tritici (Erysiphe graminis f. sp. tritici); assay: Blumeria graminis f. sp. tritici / wheat / leaf disc preventative (powdery mildew on wheat); assay type: in vivo; conditions: foliar, wheat leaf segments, inoculated 1 day after application
Protocol: Example B4: Blumeria graminis f. Sp. Tritici (Erysiphe graminis f. Sp. Tritici)/Wheat/Leaf Disc Preventative (Powdery Mildew on Wheat) Wheat leaf segments cv. Kanzler are placed on agar in a multiwell plate (24-well format) and sprayed with the formulated test compound diluted in water. The leaf disks are inoculated by shaking powdery mildew infected plants above the test plates 1 day after application. The inoculated leaf disks are incubated at 20° C. and 60% rh under a light regime of 24 h darkness followed by 12 h light/12 h darkness in a climate chamber and the activity of a compound is assessed as percent disease control compared to untreated when an appropriate level of disease damage appears on untreated check leaf segments (6-8 days after application).

[7] = test system: Phaeosphaeria nodorum (Septoria nodorum); assay: Phaeosphaeria nodorum (Septoria nodorum) / wheat / leaf disc preventative (glume blotch); assay type: in vivo; conditions: Parastagonospora nodorum, foliar, wheat leaf segments, inoculated 2 days after application
Protocol: Example B8: Phaeosphaeria nodorum (Septoria nodorum)/Wheat/Leaf Disc Preventative (Glume Blotch) Wheat leaf segments cv. Kanzler are placed on agar in a multiwell plate (24-well format) and sprayed with the formulated test compound diluted in water. The leaf disks are inoculated with a spore suspension of the fungus 2 days after application. The inoculated test leaf disks are incubated at 20° C. and 75% rh under a light regime of 12 h light/12 h darkness in a climate cabinet and the activity of a compound is assessed as percent disease control compared to untreated when an appropriate level of disease damage appears in untreated check leaf disks (5-7 days after application).

Pyrenophora teres = Pyrenophora teres / barley / leaf disc preventative (net blotch); assay type: in vivo; conditions: foliar, barley leaf segments, inoculated 2 days after application
Protocol: Example B14: Pyrenophora teres/Barley/Leaf Disc Preventative (Net Blotch) Barley leaf segments cv. Hasso are placed on agar in a multiwell plate (24-well format) and sprayed with the formulated test compound diluted in water. The leaf segments are inoculated with a spore suspension of the fungus 2 days after application. The inoculated leaf segments are incubated at 20° C. and 65% rh under a light regime of 12 h light/12 h darkness in a climate cabinet and the activity of a compound is assessed as disease control compared to untreated when an appropriate level of disease damage appears in untreated check leaf segments (5-7 days after application).

SMILES | inhibition of growth at 20 ppm [1] | inhibition of growth at 20 ppm [2] | inhibition of growth at 20 ppm (Fusarium culmorum) | inhibition of growth at 20 ppm [3] | inhibition of growth at 20 ppm [4] | inhibition of growth at 20 ppm (Sclerotinia sclerotiorum) | inhibition of growth at 20 ppm [5] | pest or weed control at 200 ppm (Alternaria solani) | pest or weed control at 200 ppm [6] | pest or weed control at 200 ppm [7] | pest or weed control at 200 ppm (Pyrenophora teres) | melting point
Cn1ncc(C(C)(CNC(=O)c2cc(-c3ccc(F)cc3F)on2)c2cccc(C#N)n2)c1Cl (centres unmarked) [Compound P-119, N-[2-(5-chloro-1-methyl-pyrazol-4-yl)-2-(6-cyano-2-pyridyl)propyl]-5-(2,4-difluorophenyl) isoxazole-3-carboxamide] | ≥ 80% | ≥ 80% | ≥ 80% | ≥ 80% | ≥ 80% | ≥ 80% | ≥ 80% | – | – | – | – | –
Cn1cc(C(C)(CNC(=O)c2nnc(-c3ccc(F)cc3F)s2)c2ccccn2)cn1 (centres unmarked) [Compound P-6, 5-(2,4-difluorophenyl)-N-[2-(1-methylpyrazol-4-yl)-2-(2-pyridyl)propyl]-1,3,4-thiadiazole-2-carboxamide] | ≥ 80% | ≥ 80% | – | ≥ 80% | – | – | ≥ 80% | ≥ 80% | ≥ 80% | ≥ 80% | ≥ 80% | –
Cn1cc(C(C)(CNC(=O)c2cc(-c3ccc(F)cc3F)on2)c2ccnc(Cl)n2)cn1 (centres unmarked) [Compound P-64, N-[2-(2-chloropyrimidin-4-yl)-2-(1-methylpyrazol-4-yl)propyl]-5-(2,4-difluorophenyl) isoxazole-3-carboxamide] | ≥ 80% | ≥ 80% | – | ≥ 80% | – | – | ≥ 80% | ≥ 80% | ≥ 80% | ≥ 80% | ≥ 80% | –
COc1ccc(C(C)(CNC(=O)c2cc(-c3ccc(F)cc3F)on2)c2cnn(C)c2)nc1Cl (centres unmarked) [Compound P-14, N-[2-(6-chloro-5-methoxy-2-pyridyl)-2-(1-methylpyrazol-4-yl)propyl]-5-(2,4-difluorophenyl) isoxazole-3-carboxamide] | – | – | – | – | – | – | ≥ 80% | – | – | – | – | 196 to 199 °C
COc1cnc(Cl)nc1C(C)(CNC(=O)c1cc(-c2ccc(F)cc2F)on1)c1cnn(C)c1 (centres unmarked) [Compound P-65, N-[2-(2-chloro-5-methoxy-pyrimidin-4-yl)-2-(1-methylpyrazol-4-yl)propyl]-5-(2,4-difluorophenyl) isoxazole-3-carboxamide] | – | – | – | – | – | – | – | – | – | – | – | 145 to 151 °C
CO/N=C(\C)c1ccnc(C(C)(CNC(=O)c2cc(-c3ccc(F)cc3F)on2)c2cnn(C)c2)c1 (centres unmarked) [Compound P-72, 5-(2,4-difluorophenyl)-N-[2-[4-[(E)-N-methoxy-C-methyl-carbonimidoyl]-2-pyridyl]-2-(1-methylpyrazol-4-yl)propyl]isoxazole-3-carboxamide] | – | – | – | ≥ 80% | – | – | – | – | – | – | – | 88 to 90 °C
Cn1cc(C(C)(CNC(=O)c2noc(-c3ccc(F)cc3F)n2)c2cccc(Cl)n2)cn1 (centres unmarked) [Compound P-83, N-[2-(6-chloro-2-pyridyl)-2-(1-methylpyrazol-4-yl)propyl]-5-(2,4-difluorophenyl)-1,2,4-oxadiazole-3-carboxamide] | ≥ 80% | ≥ 80% | ≥ 80% | ≥ 80% | ≥ 80% | – | ≥ 80% | ≥ 80% | ≥ 80% | ≥ 80% | ≥ 80% | –
Cn1cc(C(C)(CNC(=O)c2nnc(-c3ccc(F)cc3F)o2)c2cccc(Cl)n2)cn1 (centres unmarked) [Compound P-101, N-[2-(6-chloro-2-pyridyl)-2-(1-methylpyrazol-4-yl)propyl]-5-(2,4-difluorophenyl)-1,3,4-oxadiazole-2-carboxamide] | ≥ 80% | ≥ 80% | – | ≥ 80% | ≥ 80% | ≥ 80% | ≥ 80% | ≥ 80% | ≥ 80% | ≥ 80% | ≥ 80% | –
Cn1ncc(C(C)(CNC(=O)c2nnc(-c3ccc(F)cc3F)s2)c2cccc(C#N)n2)c1Cl (centres unmarked) [Compound P-118, N-[2-(5-chloro-1-methyl-pyrazol-4-yl)-2-(6-cyano-2-pyridyl)propyl]-5-(2,4-difluorophenyl)-1,3,4-thiadiazole-2-carboxamide] | ≥ 80% | ≥ 80% | ≥ 80% | ≥ 80% | ≥ 80% | ≥ 80% | ≥ 80% | – | – | – | – | –
Cn1cc(C(C)(CNC(=O)c2cc(-c3ccc(F)cc3F)on2)c2cccc(C3CC3)n2)cn1 (centres unmarked) [Compound P-102, N-[2-(6-cyclopropyl-2-pyridyl)-2-(1-methylpyrazol-4-yl)propyl]-5-(2,4-difluorophenyl) isoxazole-3-carboxamide] | ≥ 80% | ≥ 80% | ≥ 80% | ≥ 80% | ≥ 80% | ≥ 80% | ≥ 80% | – | – | ≥ 80% | ≥ 80% | –
Cn1cc(C(C)(CNC(=O)c2nc(-c3ccc(F)cc3F)no2)c2cccc(Cl)n2)cn1 (centres unmarked) [Compound P-84, N-[2-(6-chloro-2-pyridyl)-2-(1-methylpyrazol-4-yl)propyl]-3-(2,4-difluorophenyl)-1,2,4-oxadiazole-5-carboxamide] | ≥ 80% | ≥ 80% | ≥ 80% | ≥ 80% | ≥ 80% | ≥ 80% | ≥ 80% | ≥ 80% | ≥ 80% | ≥ 80% | ≥ 80% | –
Cn1ncc(C(C)(CNC(=O)c2nnc(-c3ccc(F)cc3F)s2)c2cccc(Cl)n2)c1Cl (centres unmarked) [Compound P-25, N-[2-(5-chloro-1-methyl-pyrazol-4-yl)-2-(6-chloro-2-pyridyl)propyl]-5-(2,4-difluorophenyl)-1,3,4-thiadiazole-2-carboxamide] | ≥ 80% | ≥ 80% | ≥ 80% | ≥ 80% | ≥ 80% | ≥ 80% | ≥ 80% | ≥ 80% | ≥ 80% | ≥ 80% | ≥ 80% | –
